What all share (assay type): cell-based
One assay relates to Staph. 48N. Put plainly: MIC by serial dilution on Iso-Sensitest agar, Staph. 48N. Particulars: 37° C., about 20 hours, about 10^4 colony-forming particles. How it is done: (§1) The minimum inhibitory concentrations (MIC) there determined by the serial dilution method on Iso-Sensitest agar (Oxoid). For each test substance, a number of agar plates were prepared which, at twice the dilution in each case, contained falling concentrations of the active compound. The agar plates were inoculated using a multipoint inoculator (Denley). For inoculation, overnight cultures of the pathogenic organisms were used which had previously been diluted such that each inoculation point contained about 10^4 colony-forming particles. The inoculated agar plates were incubated at 37° C., and the microbial growth was read off after about 20 hours. The MIC (μg/ml) indicates the lowest active compound concentration at which it was not possible to detect growth using the naked eye.

The subject of the next assay is E. coli Neumann. Briefly: MIC by serial dilution on Iso-Sensitest agar, E. coli Neumann. Particulars: Escherichia coli, 37° C., about 20 hours, about 10^4 colony-forming particles. As to the method:
as §1

For the next assay, the system named is Staph. 9TV. Briefly: MIC by serial dilution on Iso-Sensitest agar, Staph. 9TV. Particulars: 37° C., about 20 hours, about 10^4 colony-forming particles. As to the method: as §1
In assay [1] the test system is Mycobacterium smegmatis DSM 43465. Briefly: MIC by broth microdilution, Mycobacterium smegmatis DSM 43465. The note with it: Mycolicibacterium smegmatis, DSM43465. As to the method: (§2) For rapidly growing mycobacteria, the MIC determination was carried out following the method of broth microdilution described by Swenson [cf. J. M. Swenson, C. Thornberry, U. A. Silcox, Rapidly growing mycobacteria. Testing of susceptibility to 34 antimicrobial agents by broth microdilution. Antimicrobial Agents and Chemotherapy Vol. 22, 186-192 (1982)]. A deviation from this was the brain-heart extract medium treated with 0.1% by volume of Tween 80.
(§3) The mycobacterial strains used wvere ordered from DSM (German Collection of Microorganisms, Brunswick). They were incubated at 37° C. in a humid chamber.
(§4) The MICs were read off after 2-4 days when the preparation-free controls were cloudy as a result of growth.

The test system of the next assay is Staph 25701. Put plainly: MIC by serial dilution on Iso-Sensitest agar, Staph 25701. Particulars: 37° C., about 20 hours, about 10^4 colony-forming particles. As to the method: as §1
The test system of another assay is Psdm. Bonn. Put plainly: MIC by serial dilution on Iso-Sensitest agar, Psdm. Bonn. Particulars: 37° C., about 20 hours, about 10^4 colony-forming particles. How it is done:
as §1

The test system of another assay is Staph. 133. Put plainly: MIC by serial dilution on Iso-Sensitest agar, Staph. 133. The note with it: 37° C., about 20 hours, about 10^4 colony-forming particles. How it is done:
as §1

The next assay concerns Klebs. 57 USA. Briefly: MIC by serial dilution on Iso-Sensitest agar, Klebs. 57 USA. The note with it: 37° C., about 20 hours, about 10^4 colony-forming particles. How it is done:
as §1

Assay [2] deals with Mycobacterium smegmatis DSM 43061. Put plainly: MIC by broth microdilution, Mycobacterium smegmatis DSM 43061. Particulars: Mycolicibacterium smegmatis, DSM43061. As to the method: as §2, §3, §4
For orientation: In broth dilution the organism is exposed to a series of concentrations in liquid medium.

Where [3] appears, read: DSM 43465, inoculum 3.10U+04 /ml, brain-heart extract medium with 0.1% Tween 80, 37° C., 2-4 days, read-out: MIC.
[4] abbreviates: DSM 43061, inoculum 2.20U+04 /ml, brain-heart extract medium with 0.1% Tween 80, 37° C., 2-4 days, read-out: MIC.

Structures are written as SMILES. Values after ≈ are worked out from the molar mass of the structure shown. Like-named read-outs stand apart in the source and are kept apart here.

Consider `CC(=O)NC[C@H]1CN(c2ccc3c(ccc(=O)n3C)c2)C(=O)O1` [Example 3], for which the MIC was 2 µg/mL (≈ 6.34 µM) with Staph. 48N; greater than 64 µg/mL in the assay on E. coli Neumann; 1 µg/mL (≈ 3.17 µM) in the assay with Staph. 9TV; 8 µg/mL (≈ 25.4 µM) in assay [1] (setting [3]); 2 µg/mL (≈ 6.34 µM) in the assay on Staph 25701; greater than 64 µg/mL against Psdm. Bonn. Besides, the MIC is 2 µg/mL (≈ 6.34 µM) with Staph. 133, greater than 64 µg/mL in the assay with Klebs. 57 USA and 2 µg/mL (≈ 6.34 µM) in assay [2] (setting [4]).
In the case of `CCn1c(=O)ccc2cc(N3C[C@H](CNC(C)=O)OC3=O)ccc21` [Example 4], the MIC against Staph. 48N was 8 µg/mL (≈ 24.3 µM); in the assay with E. coli Neumann, greater than 64 µg/mL; with Staph. 9TV, 2 µg/mL (≈ 6.07 µM); in assay [1] (setting [3]) it was 8 µg/mL (≈ 24.3 µM); against Staph 25701 it was 4 µg/mL (≈ 12.1 µM); in the assay with Staph. 133 it was 4 µg/mL (≈ 12.1 µM). Further, the MIC in the assay on Klebs. 57 USA was greater than 64 µg/mL; in assay [2] (setting [4]) it was 4 µg/mL (≈ 12.1 µM).
Regarding `CC(=O)NC[C@H]1CN(c2ccc3c(ccc(=O)n3C(C)C)c2)C(=O)O1` [Example 5], the MIC in the assay with Staph. 48N is 16 µg/mL (≈ 46.6 µM); in the assay with E. coli Neumann it was greater than 64 µg/mL; against Staph. 9TV it was 8 µg/mL (≈ 23.3 µM); in the assay on Staph 25701, 16 µg/mL (≈ 46.6 µM); in the assay with Psdm. Bonn, greater than 64 µg/mL; against Staph. 133, 16 µg/mL (≈ 46.6 µM). In the assay with Klebs. 57 USA, this molecule displayed an MIC greater than 64 µg/mL.
Turning to `CC(=O)NC[C@H]1CN(c2ccc3c(ccc(=O)n3CC#N)c2)C(=O)O1` [Example 6], the MIC in [1] (setting [3]) turned out to be 4 µg/mL (≈ 11.8 µM); in assay [2] (setting [4]), 8 µg/mL (≈ 23.5 µM).
On to `CC(=O)NC[C@H]1CN(c2ccc3c(ccc(=O)n3CCO)c2)C(=O)O1` [Example 7], for which the MIC in the assay with Staph. 48N is 8 µg/mL (≈ 23.2 µM); with E. coli Neumann, greater than 32 µg/mL; in the assay on Staph. 9TV, 2 µg/mL (≈ 5.79 µM); in the assay with Staph 25701, 8 µg/mL (≈ 23.2 µM); with Psdm. Bonn it was greater than 32 µg/mL; in the assay with Staph. 133 it was 8 µg/mL (≈ 23.2 µM). In the assay on Klebs. 57 USA, this molecule displayed an MIC greater than 32 µg/mL.
Take `CC(=O)NC[C@H]1CN(c2ccc3c(ccc(=O)n3S(C)(=O)=O)c2)C(=O)O1` [Example 12]: the MIC against Staph. 48N is 8 µg/mL (≈ 21.1 µM); against E. coli Neumann, greater than 64 µg/mL; with Staph. 9TV it was 4 µg/mL (≈ 10.5 µM); in the assay with Staph 25701, 8 µg/mL (≈ 21.1 µM); with Psdm. Bonn, greater than 64 µg/mL; against Staph. 133, 8 µg/mL (≈ 21.1 µM). In the assay with Klebs. 57 USA, the MIC was greater than 64 µg/mL.
For `NNC(=O)c1ccncc1` [Isoniazide, reference compound], the MIC in assay [1] (setting [3]) stood at 1 µg/mL (≈ 7.29 µM); in assay [2] (setting [4]), 4 µg/mL (≈ 29.2 µM).
Take `[H]/N=C(/N)N[C@H]1[C@H](O)[C@@H](O)[C@H](O[C@@H]2O[C@@H](C)[C@](O)(C=O)[C@H]2O[C@@H]2O[C@@H](CO)[C@H](O)[C@@H](O)[C@@H]2NC)[C@@H](N/C(N)=N\[H])[C@@H]1O` [Streptomycin, reference compound]: the MIC in assay [1] and in assay [2] was 4 µg/mL (≈ 6.88 µM) throughout.

What is called MIC is the lowest concentration that inhibits growth of the organism.

The values above are taken from US5861413A, “2-oxo- and 2-thio-1,2-dihydroquinolinyl-oxazolidinones” (Bayer Aktiengesellschaft, priority 1996, dated 1999).
